Values joined by “and” are separate entries in the source; they are usually repeats but may differ in a detail not shown here. Equal entries are not always repeated.
test system: Plasmodium falciparum; assay: GSK_TCMDC: Inhibition of Plasmodium falciparum 3D7 in whole erythrocytes, using parasite LDH activity as an index of growth.; type: functional, organism-based; conditions: not given

| Compound | XC50 |
| --- | --- |
| O=C(C=Cc1ccc(-c2ccccc2)cc1)NC1CCC(CN2CCC(c3c[nH]c4ccccc34)CC2)CC1 (stereo not given) | 807 nM |
| COc1ccc2ncc(F)c(C(O)CN3CCC(NCc4ccc5c(n4)NC(=O)CO5)CC3)c2c1 (stereo not given) | 1110 nM and 367 nM |

same assay, conditions: Plasmodium falciparum, 3D7

| Compound | XC50 |
| --- | --- |
| Cc1nc(C)c(-c2ccc(Oc3ccc(Cl)cc3)cc2)c(O)c1I | 957 nM |
| CC(C)N1CCC(N(Cc2ccc(-c3ccc(C(F)(F)F)cc3)cc2)C(=O)Cn2c(CCc3cccc(F)c3F)cc(=O)c3cn(C)nc32)CC1 | 1170 nM |
| Nc1cc2c(C3CCN(CC4CCN(C(=O)/C=C/c5ccc(Cl)c(Cl)c5)CC4)CC3)c[nH]c2cn1 | 975 nM |
| CC(=O)Nc1ncc(C(=O)Nc2cccc(-c3ccc(-c4nc5cc(F)ccc5[nH]4)cc3)c2)s1 | 622 nM |
| CCN(Cc1ccc(-c2ccc(C(F)(F)F)cc2)cc1)C(=O)Cn1c(SCc2cccc(F)c2F)cc(=O)c2cc(CN3CCCCC3)ccc21 | 801 nM |
| O=C(C=Cc1ccc(-c2ccccc2)cc1)NC1CCC(CN2CCC(c3c[nH]c4ccccc34)CC2)CC1 (stereo not given) | 738 nM |
| Cc1ccn2cc(-c3ccc(NC(=O)c4ccc(Br)o4)cc3)nc2c1 | 741 nM |
| CC(C)C1=C[C@H]2C[C@]3(C4OCCO4)[C@@H]4CC[C@@H](C)[C@H]4C[C@@]2(C(=O)OCC2COCO2)[C@]13C(=O)OC(c1ccccc1)c1ccccc1 (stereo not given in full) | 855 nM |
| CO/C(=C\C=C\c1cc2cc(Cl)c(Cl)cc2[nH]1)C(=O)NC1CCN(CCCc2ccccc2)CC1 | 767 nM |
| CN=c1nc(NN=Cc2ccccc2Cl)[nH]c(=Nc2cccc(C(F)(F)F)c2)[nH]1 | 915 nM |
| Cc1ccc(OCC2CCN(c3ncc(C(=O)NC4CC4)cc3Cl)CC2)cc1 | 1090 nM |
| COc1ccc(Br)cc1/C=C/C(=O)Nc1ccc(C2CCN(C)CC2)cc1 | 502 nM |
| N=c1c(C(=O)NCc2ccccc2)cc2c(=O)n3ccccc3nc2n1CCc1ccccc1 | 535 nM |
| CC(=O)NCCNCc1cccc(C(=O)NCc2cccc(C(F)(F)F)c2)c1 | 1080 nM |
| CC(C)(C)c1ccc(CN2CCC(CNC(=O)c3cc(-c4cccc(F)c4)cs3)C2)cc1 (stereo not given) | 898 nM |
| COc1cc2nc(NC3CCN(Cc4ccccc4)CC3)nc(N)c2cc1OC | 166 nM |
| C=CCN(c1ccc(OC)cc1)S(=O)(=O)c1ccc(Cl)c(C(=O)Nc2cccc(C#N)c2)c1 | 577 nM |
| Cc1ccccc1C1CCN(C2CCC(NC(=O)c3cc4cc(C(C)C)ccc4[nH]3)CC2)CC1 (stereo not given) | 695 nM |
| CN1CCN(c2ccc(-c3nc4ccc(OCc5cc(Cl)cc(Cl)c5)c(C(N)=O)c4[nH]3)cc2)CC1 | 657 nM |
| CCOc1ccc(NC(=O)c2ccc(CN3CCCN(Cc4cccc(O)c4)CC3)cc2)cc1 | 1310 nM |
| Cc1ccc(CCNCC(O)c2cccc(C(F)(F)F)c2)cc1 (stereo not given) | 868 nM |
| Oc1ccc2ccccc2c1CNC1CCCCCC1 | 933 nM |
| O=C(Nc1ccc(OC2CCN(Cc3ccccc3)CC2)c(Cl)c1)c1ccsc1 | 900 nM |
| N#Cc1ccc(N/C(=N\c2cccc(Cl)c2Cl)NC2Cc3ccccc3C2)c(O)c1 | 832 nM |
| COCC(=O)N(Cc1ccccc1-c1cccc(CNCc2ccc3c(c2)OCO3)c1)C1CCN(Cc2ccccc2)CC1 | 842 nM |

| Compound | XC50 |
| --- | --- |
| CCCCNCCOc1ccc(-c2nc(-c3ccccc3)c(-c3ccccc3)[nH]2)cc1 | 679 nM |
| CCC(C)NCC(O)(c1ccc(Cl)cc1)c1ccc(Cl)cc1 (stereo not given) | 843 nM |
| Nc1nc2ccc(S(=O)(=O)Nc3ccc(C(=O)N[C@@H](CCC(=O)O)C(=O)O)c(F)c3)cc2c(=O)[nH]1 | 824 nM |
| CC(O)C1CCCCN1C(=O)c1ccc(-c2cccc(-c3nc4cc(F)ccc4[nH]3)c2)cc1 (stereo not given) | 540 nM |
| CCc1cn2c3c(cc(C(=O)N[C@@H](Cc4ccccc4)[C@H](O)CNC(C)(C)c4cccc(OC)c4)cc13)N(C)S(=O)(=O)C2 | 61.7 nM |
| CCOc1ccc(C=CC(=O)Nc2ccc3nc(N4CCOCC4)cc(C)c3c2)cc1OC | 901 nM |
| C(=Cc1nc2ccccc2s1)c1ccc2c(c1)OCCO2 | 393 nM |
| CC(C)(C)c1cc(NC(=O)c2ccc(Cl)c([N+](=O)[O-])c2)cc(C(C)(C)C)c1 | 1030 nM |
| CCNS(=O)(=O)c1ccc(Oc2ccc([N+](=O)[O-])cc2)cc1 | 169 nM |
| COc1cc(-c2cc(-c3ccc(OCCN(C)C)cc3)[nH]c2-c2ccncc2)ccc1Cl | 711 nM |
| O=C(Nc1ccc(OC2CCN(Cc3ccc(F)cc3)CC2)c(Cl)c1)c1ccc(F)cc1 | 188 nM |
| CC(=O)Nc1ccc(C#Cc2ccc(-c3c(C)[nH]c(C)c(Cl)c3=O)cc2)cc1 | 462 nM |
| COc1ccc2ncc(Cl)c(CCN3CC[C@@H](CNCc4cc5c(cn4)OCS5)C3)c2n1 | 811 nM |
| Cc1cccc2nc(-c3ccc(-c4cccc(CNCCCN5CCCC5=O)c4)cc3)[nH]c12 | 840 nM |
| CCCN1CCN(c2ccccc2NS(=O)(=O)c2ccc(C(=O)Nc3ccc(Cl)cc3)cc2)CC1 | 1140 nM |
| CCC(C)C#Cc1c(C)nc(N)nc1N (stereo not given) | 262 nM |
| CN(CCCNCc1cccc2ccccc12)CCCNCc1cccc2ccccc12 | 722 nM |
| CCN1CCN(Cc2ccc(-c3ccc(NS(=O)(=O)c4cccc5cccnc45)cc3)cc2)CC1 | 922 nM |
| COc1ccc(-c2cc(-c3nc4cc(CN)ccc4[nH]3)c(=O)n(C)c2)cc1OC | 1400 nM |
| O=C(NC1CCN(Cc2ccccc2)CC1)c1cc(-c2cccnc2)nc2ccc(Cl)cc12 | 759 nM |
| COc1ccc(CNC2CCN(C)CC2)cc1-c1ccc(S(=O)(=O)NC2CCC2)cc1 | 882 nM |
| O=C(Cc1cccc(OCCCN(Cc2cccc(C(F)(F)F)c2Cl)CC(c2ccccc2)c2ccccc2)c1)NCc1ccco1 | 937 nM |
| COc1ccc2nc(C)cc(Nc3ccc(Oc4ccc5ccccc5c4Cl)c(Cl)c3)c2c1 | 501 nM |
| CCCCCOc1ccc(CC(C)NCC(O)c2cccc(Cl)c2)cc1 (stereo not given) | 653 nM |
| CC(=NNc1nc2ccccc2s1)c1ccccn1 | 1120 nM |

| Compound | XC50 |
| --- | --- |
| CN1CCC(c2nc(N)no2)C1 (stereo not given) | 975 nM |
| CC[C@H]1CN2CC[C@H]1C[C@@H]2[C@@H](O)c1ccnc2ccccc12 | 279 nM |
| CN(C)CCNCc1ccc(-c2ccc3c(Nc4ccc(Cl)cc4F)ccnc3c2)o1 | 208 nM |
| CCCCCC(C)C(C)c1cc(O)c2c(c1)OC(C)(C)CC2(O)c1ccccn1 (stereo not given) | 741 nM |
| CCCC(=O)c1c(O)c2ccccc2oc1=O | 265 nM |
| Cc1cnc(C(=O)Nc2cccc(-c3ccc(-c4nc5cc(C(F)(F)F)ccc5[nH]4)s3)c2)cn1 | 704 nM |
| O=c1cc(NCCCNC2CCc3ccc(Cl)cc32)[nH]c2ccccc12 (stereo not given) | 862 nM |
| FC(F)(F)c1ccc2[nH]c(-c3cccc(-c4cccc(CNCC5CCCO5)c4)c3)nc2c1 (stereo not given) | 422 nM |
| CCCc1cc(Cc2cnc(N)nc2N)cc2c1OC(C)(C)C2 | 1080 nM |
| CC(CN1CCN(C)CC1)C(=O)Nc1cccc(-c2ccc(-c3nc4cc(F)ccc4[nH]3)cc2)c1 (stereo not given) | 807 nM |
| COc1ccc2nccc([C@@H](O)CN3CCC(NCCOc4cccc(F)c4F)CC3)c2c1 | 244 nM |
| COc1cc2c(cc1C(F)(F)F)N(C(=O)Nc1cc(-c3ccncc3)cc(-c3cccnc3)c1)CC2 | 619 nM |
| CCCCCCCCNCc1c(O)ccc2ccccc12 | 739 nM |
| CC(C)(C)CC(C)(C)c1ccc(O)c(CNC2CCCCC2)c1 | 64.9 nM |
| CCCCCCn1c(Sc2ccc(C#N)c([N+](=O)[O-])c2)nnc1-c1cccc(Cl)c1 | 609 nM |
| NCc1ccc(CNCc2ccc(-c3ccc(-c4nc5cc(C(F)(F)F)ccc5[nH]4)s3)cc2)cc1 | 157 nM |
| O=[N+]([O-])c1cccc(C(Nc2ccccn2)c2ccc3cccnc3c2O)c1 (stereo not given) | 1330 nM |
| CCCC(CNCc1ccccc1)CNc1cc(=O)c2ccccc2[nH]1 (stereo not given) | 1020 nM |
| COc1ccc2c(-c3ccccc3)noc2c1 | 241 nM |
| CCCCNCC(O)COc1ccccc1-c1ccc(N/N=C/c2cccc3ccccc23)nn1 (stereo not given) | 891 nM |
| CN1CCN(c2cc(-c3cccnc3)nc(-c3ccncc3)n2)CC1 | 554 nM |
| Cc1c(CNCCCNc2cc(=O)c3ccccc3[nH]2)sc(C(F)F)c1Br | 867 nM |
| COc1cc2nc(N3CCC(CNC(=O)c4cccc5cccnc45)CC3)nc(N)c2cc1OC | 1700 nM |
| CCOC(=O)N1NC(=O)N(c2ccccc2)C1(c1ccccc1)c1ccccc1 | 697 nM |
| COc1cc(Cc2cnc(N)nc2N)cc(OCCCCCCC(=O)O)c1OC | 937 nM |

| Compound | XC50 |
| --- | --- |
| CCCCCCNC(=O)C1Cc2c([nH]c3ccc(Br)cc23)C2(CCN(CCc3ccccc3)CC2)N1 (stereo not given) | 788 nM |
| O=C(NC1CCCCN(Cc2ccccc2O)C1)c1cccc(C(F)(F)F)c1 (stereo not given) | 795 nM |
| Cn1cncc1C(=O)Nc1cccc(-c2ccc(-c3nc4cc(F)ccc4[nH]3)s2)c1 | 872 nM |
| c1cc(CN2CCN(c3ccncc3)CC2)cc(-c2ccc(-c3nc4ccccc4[nH]3)s2)c1 | 148 nM |
| CC(Nc1ccc2c(c1)OCCO2)C(=O)Nc1cc(C(F)(F)F)ccc1N1CCOCC1 (stereo not given) | 408 nM |
| CS(=O)(=O)c1cccc(-c2cnc(N)c3cc(-c4ccc(F)cc4)ccc23)c1 | 903 nM |
| c1cncc(Oc2ccc(Nc3ccnc4cc(-c5cccc(CN6CCOCC6)c5)ccc34)cc2)c1 | 305 nM |
| CS(=O)(=O)c1cc2c(Nc3ccc(N4CCOCC4)cc3)c(C(N)=O)cnc2cc1Br | 249 nM |
| COc1ccccc1-c1cccc2c(NC(=O)Nc3ccc4nccc(N5CCN(C)CC5)c4c3)ccnc12 | 1000 nM |
| OC(CNCc1cccc(Oc2ccc(Cl)cc2)c1)c1cc(C(F)(F)F)cc(C(F)(F)F)c1 (stereo not given) | 255 nM |
| CCn1c(C)cc(C=C2SC(=Nc3ccccc3)NC2=O)c1C | 680 nM |
| Cc1ccc(C)c(NC(=O)Nc2ccc(C)c(-c3ccc(C(=O)Nc4ccncc4)cc3)c2)c1 | 618 nM |
| CN1CCCN(Cc2ccc(-c3ccc(NC(=O)c4cccc(Cl)c4)cc3)cc2)CC1 | 859 nM |
| CC(C)(C)c1ccc(-c2ccccc2CNC(=O)c2cccc(O)c2)cc1 | 267 nM |
| c1ccc(CN2CCC(NCc3ccc(-c4cccc(CNC5CCCC5)c4)cc3)CC2)cc1 | 339 nM |
| c1cn(CCCNc2ncc(-c3ccsc3)c(-c3nccs3)n2)cn1 | 646 nM |
| CC(C)(C)C/C=C\c1ccc(C(=O)NCC2CC2)cc1 | 850 nM |
| CC(C)N(Cc1cnc(N)c(C#N)n1)c1ccc(Cl)c(Cl)c1 | 844 nM |
| CCCCCCCCc1c(C)nc(C)c(C#N)c1O | 402 nM |
| CCc1sc(-c2ccc(C(C)(C)C)cc2)nc1C(=O)NCCCN1CCCC1=O | 988 nM |
| CCCCNC(=O)[C@@H](NC(=O)c1ccc(O)c(-c2ccc(Cl)c(Cl)c2)c1)C(C)C | 230 nM |
| CC(CN1CCN(C)CC1)C(=O)Nc1ccc(-c2ccc(-c3nc4cc(F)ccc4[nH]3)cc2)cc1 (stereo not given) | 792 nM |
| CC(C)Nc1cc(C(=O)N[C@@H](Cc2ccccc2)[C@H](O)CNC2CCCCC2)cc(N2CCCCS2(=O)=O)c1 | 103 nM |

Reference: ChEMBL document CHEMBL1157539, “Thousands of chemical starting points for antimalarial lead identification” (Nature, 2010)
